Data on 24 molecules can be found in patent US10414763B2 (CANCER RESEARCH TECHNOLOGY LIMITED, priority 2014, dated 2019).

The structures appear in SMILES notation.

The assay has as its target T1, full-length human PKCι (Homo sapiens, UniProt P41743).
T1 construct: Recombinant, full-length human PKCι expressed in Sf21 insect cells is also commercially available; purchased EMD Millipore; host or cells: Sf21 insect cells (baculovirus)
T1 sequence (P41743 1-596): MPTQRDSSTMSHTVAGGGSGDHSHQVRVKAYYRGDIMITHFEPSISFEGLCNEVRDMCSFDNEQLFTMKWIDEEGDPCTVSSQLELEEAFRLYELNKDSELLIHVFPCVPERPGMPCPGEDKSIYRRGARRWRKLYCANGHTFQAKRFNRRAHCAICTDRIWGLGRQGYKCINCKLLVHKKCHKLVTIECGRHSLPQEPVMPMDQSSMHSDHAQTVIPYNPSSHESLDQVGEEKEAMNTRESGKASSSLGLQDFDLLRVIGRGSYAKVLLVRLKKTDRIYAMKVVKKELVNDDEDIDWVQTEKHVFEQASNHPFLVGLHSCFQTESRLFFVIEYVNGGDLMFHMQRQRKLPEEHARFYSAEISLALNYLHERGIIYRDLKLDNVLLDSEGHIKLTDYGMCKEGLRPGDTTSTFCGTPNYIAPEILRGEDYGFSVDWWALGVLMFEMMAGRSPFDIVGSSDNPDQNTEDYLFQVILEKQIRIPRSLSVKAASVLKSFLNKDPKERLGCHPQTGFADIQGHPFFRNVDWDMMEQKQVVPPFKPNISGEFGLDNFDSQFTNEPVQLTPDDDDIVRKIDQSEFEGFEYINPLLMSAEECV
As to the kind of experiment: PKCι IC50 IMAP fluorescence polarisation assay, full-length enzyme, 150 μM ATP. In kind it is biochemical. The settings on record: read-out: IC50 in IMAP assay against full length PKCi at 150 μM ATP. The gist of the method: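 IMAP fluorescence polarisation kinase assay: 15 pM baculovirus-expressed human PKCiota with 100 nM FAM-pseudosubstrate peptide and 150 μM ATP, 1 h at 25 °C. IMAP detection reagent then 2 h at 25 °C before FP measurement. Inhibition referenced to no-compound and no-enzyme controls for IC50 fitting.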
(Fluorescence polarisation rises when a labelled molecule tumbles more slowly, as on binding a larger partner.)
Turning to `C[C@H]1CNCC[C@@H]1Nc1nc(-c2ccnc(Nc3nc(F)ccc3F)c2)nc2cncc(C3CCC3)c12` (single isomer, unassigned) [Example 280, {5-Cyclobutyl-2-[2-(3,6-difluoro-pyridin-2-ylamino)-pyridin-4-yl]-pyrido[3,4-d]pyrimidin-4-yl}-((3S,4S)-3-methyl-piperidin-4-yl)-amine or enantiomer], the half-inhibitory concentration (IC50) (commonly the point on the concentration scale where inhibition reaches its midpoint) was under 100 nM.
As for `C[C@@H]1CNCC[C@@H]1Nc1nc(-c2ccnc(Nc3nc(F)ccc3F)c2)nc2cncc(C3CCC3)c12` (single isomer, unassigned) [Example 297, {5-Cyclobutyl-2-[2-(3,6-difluoro-pyridin-2-ylamino)-pyridin-4-yl]-pyrido[3,4-d]pyrimidin-4-yl}-((3R,4S)-3-methyl-piperidin-4-yl)-amine or enantiomer], the figure is under 100 nM.
In the case of `C[C@H]1CNCC[C@H]1Nc1nc(-c2ccnc(Nc3nc(F)ccc3F)c2)nc2cncc(C3CCC3)c12` (single isomer, unassigned) [Example 298, {5-Cyclobutyl-2-[2-(3,6-difluoro-pyridin-2-ylamino)-pyridin-4-yl]-pyrido[3,4-d]pyrimidin-4-yl}-((3S,4R)-3-methyl-piperidin-4-yl)-amine or enantiomer] it was under 100 nM; in that of `C[C@H]1CNCC[C@@H]1Nc1nc(-c2ccnc(Nc3nc(F)ccc3F)c2)nc2cncc(C3CC3)c12` (single isomer, unassigned) [Example 334, 5-Cyclopropyl-2-[2-[(3,6-difluoro-2-pyridyl)amino]-4-pyridyl]-N-[(3S,4S)-3-methyl-4-piperidyl]pyrido[3,4-d]pyrimidin-4-amine or enantiomer], under 100 nM; in that of `C[C@@H]1CNCC[C@H]1Nc1nc(-c2ccnc(Nc3nc(F)ccc3F)c2)nc2cncc(C3CC3)c12` (single isomer, unassigned) [Example 335, 5-Cyclopropyl-2-[2-[(3,6-difluoro-2-pyridyl)amino]-4-pyridyl]-N-[(3R,4R)-3-methyl-4-piperidyl]pyrido[3,4-d]pyrimidin-4-amine or enantiomer], under 100 nM.
As to `C[C@@H]1CNCC[C@H]1Nc1nc(-c2ccnc(Nc3ncccc3F)c2)nc2cncc(C3CCC3)c12` (single isomer, unassigned) [Example 341, 5-Cyclobutyl-2-[2-[(3-fluoro-2-pyridyl)amino]-4-pyridyl]-N-[(3R,4R)-3-methyl-4-piperidyl]pyrido[3,4-d]pyrimidin-4-amine or enantiomer], the IC50 was under 100 nM.
In the case of `C[C@H]1CNCC[C@@H]1Nc1nc(-c2ccnc(Nc3ncccc3F)c2)nc2cncc(C3CCC3)c12` (single isomer, unassigned) [Example 342, 5-Cyclobutyl-2-[2-[(3-fluoro-2-pyridyl)amino]-4-pyridyl]-N-[(3S,4S)-3-methyl-4-piperidyl]pyrido[3,4-d]pyrimidin-4-amine or enantiomer] it was under 100 nM; in that of `CC1(C)CNCCC1Nc1nc(-c2ccnc3[nH]c(-c4cc(Cl)ccc4Cl)cc23)nc2cncc(C3CC3)c12` (stereo in doubt) [Example 353, {5-Cyclopropyl-2-[2-(2,5-dichloro-phenyl)-1H-pyrrolo[2,3-b]pyridin-4-yl]-pyrido[3,4-d]pyrimidin-4-yl}-((S)-3,3-dimethyl-piperidin-4-yl)-amine], under 100 nM; in that of `Cc1cn2c(n1)[nH]c1nccc(-c3nc(N4CCNCC4)c4c(C5CCC5)cncc4n3)c12` [Example 3, 4-(5-Cyclobutyl-4-piperazin-1-yl-pyrido[3,4-d]pyrimidin-2-yl)-2-methyl-8H-1,3a,7,8-tetraaza-cyclopent[a]indene], 100 to 1000 nM.
Consider `OC[C@@H]1CNCCN1c1nc(-c2ccnc3[nH]c(C(F)(F)F)cc23)nc2cncc(C3CC3)c12` [Example 4, {(S)-1-[5-Cyclopropyl-2-(2-trifluoromethyl-1H-pyrrolo[2,3-b]pyridin-4-yl)-pyrido[3,4-d]pyrimidin-4-yl]-piperazin-2-yl}-methanol], for which the IC50 is 100 to 1000 nM.
In the case of `OC[C@@H]1CNCCN1c1nc(-c2ccnc3[nH]c(C(F)(F)F)cc23)nc2cncc(C3CCC3)c12` [Example 5, {(S)-1-[5-Cyclobutyl-2-(2-trifluoromethyl-1H-pyrrolo[2,3-b]pyridin-4-yl)-pyrido[3,4-d]pyrimidin-4-yl]-piperazin-2-yl}-methanol] it was 1000 to 10000 nM; in that of `OC[C@H]1CNCCN1c1nc(-c2ccnc3[nH]c(C(F)(F)F)cc23)nc2cncc(C3CC3)c12` [Example 6, {(R)-1-[5-Cyclopropyl-2-(2-trifluoromethyl-1H-pyrrolo[2,3-b]pyridin-4-yl)-pyrido[3,4-d]pyrimidin-4-yl]-piperazin-2-yl}-methanol], 100 to 1000 nM; in that of `OC[C@H]1CNCCN1c1nc(-c2ccnc3[nH]c(C(F)(F)F)cc23)nc2cncc(C3CCC3)c12` [Example 7, {(R)-1-[5-Cyclobutyl-2-(2-trifluoromethyl-1H-pyrrolo[2,3-b]pyridin-4-yl)-pyrido[3,4-d]pyrimidin-4-yl]-piperazin-2-yl}-methanol], 100 to 1000 nM.
Regarding `c1ccc2c(c1)[nH]c1nccc(-c3nc(N4CC[C@@H]5CNC[C@@H]54)c4c(C5CCC5)cncc4n3)c12` [Example 9, 4-((R)-5-Cyclobutyl-4-(R)-hexahydro-pyrrolo[3,4-b]pyrrol-1-yl-pyrido[3,4-d]pyrimidin-2-yl)-9H-pyrido[2,3-b]indole], the IC50 is under 100 nM.
In the case of `c1ccc2c(c1)[nH]c1nccc(-c3nc(N4CC[C@H]5CNC[C@H]54)c4c(C5CCC5)cncc4n3)c12` [Example 10, 4-((S)-5-Cyclobutyl-4 (S)-hexahydro-pyrrolo[3,4-b]pyrrol-1-yl-pyrido[3,4-d]pyrimidin-2-yl)-9H-pyrido[2,3-b]indole] it was under 100 nM; in that of `N[C@H]1C[C@H](Nc2nc(-c3ccnc4[nH]c5ccccc5c34)nc3cncc(C4CCC4)c23)C1` [Example 11, trans-N-[5-Cyclobutyl-2-(9H-pyrido[2,3-b]indol-4-yl)-pyrido[3,4-d]pyrimidin-4-yl]-cyclobutane-1,3-diamine], under 100 nM; in that of `CC1(c2cc3c(-c4nc(N[C@H]5CC[C@H](N)CC5)c5c(C6CC6)cncc5n4)ccnc3[nH]2)CC1(F)F` (stereo partly drawn) [Example 12, trans-N-{5-Cyclopropyl-2-[2-(2,2 difluoro-1-methyl-cyclopropyl)-1H-pyrrolo[2,3-b]pyridin-4-yl]-pyrido[3,4-d]pyrimidin-4-yl}-cyclohexane-1,4-diamine], under 100 nM.
As for `OC1(c2cc3c(-c4nc(N5CCNCC5)c5c(C6CCC6)cncc5n4)ccnc3[nH]2)CCSC1` (stereo not drawn) [Example 13, 3-[4-(5-Cyclobutyl-4-piperazin-1-yl-pyrido[3,4-d]pyrimidin-2-yl)-1H-pyrrolo[2,3-b]pyridin-2-yl]-tetrahydro-thiophen-3-ol], the figure is under 100 nM; as for `c1ccc(Sc2cc3c(-c4nc(N5CCNCC5)c5c(C6CC6)cncc5n4)ccnc3[nH]2)cc1` [Example 14, 5-Cyclopropyl-2-(2-phenylsulfanyl-1H-pyrrolo[2,3-b]pyridin-4-yl)-4-piperdzin-1-yl-pyrido[3,4-d] pyrimidine], under 100 nM.
As for `CN(c1nc(-c2ccnc3[nH]c(Sc4ccccc4)cc23)nc2cncc(C3CC3)c12)C1CCNCC1` [Example 15, [5-Cyclopropyl-2-(2-phenylsulfanyl-1H-pyrrolo[2,3-b]pyridin-4-yl)-pyrido[3,4-d]pyrimidin-4-yl]-methyl-piperidin-4-yl amine], the figure is under 100 nM.
Regarding `CSc1cc2c(-c3nc(N4CCNCC4)c4c(C5CC5)cncc4n3)ccnc2[nH]1` [Example 16, 5-Cyclopropyl-2-(2-methylsulfanyl-1H-pyrrolo[2,3-b]pyridin-4-yl)-4-piperazin-1-yl pyrido[3,4-d]pyrimidine], the IC50 was under 100 nM.
As for `CSc1cc2c(-c3nc(N4CCNCC4)c4c(C5CCC5)cncc4n3)ccnc2[nH]1` [Example 17, 5-Cyclobutyl-2-(2-methylsulfanyl-1H-pyrrolo[2,3-b]pyridin-4-yl)-4-piperazin-1-yl pyrido[3,4-d] pyrimidine], the figure is under 100 nM.
In the case of `Clc1ccc(-c2cc3c(-c4nc(N5CCNCC5)c5c(C6CC6)cncc5n4)ccnc3[nH]2)c(Cl)c1` [Example 18, 5-Cyclopropyl-2-[2-(2,4-dichloro-phenyl)-1H-pyrrolo[2,3-b]pyridin-4-yl]-4-piperazin-1-yl-pyrido[3,4-d] pyrimidine] it was under 100 nM; in that of `FC(F)(F)c1cc2c(-c3nc(N4CC[C@H]5CNC[C@H]54)c4c(C5CC5)cncc4n3)ccnc2[nH]1` [Example 20, 5-Cyclopropyl-4-(3aS,6aS)-hexahydro-pyrrolo[3,4-b]pyrrol-1-yl-2-(2-trifluoromethyl-1H-pyrrolo[2,3-b]pyridin-4-yl)-pyrido[3,4-d]pyrimidine], under 100 nM.
